Results published in US12252488B2 (Nimbus Saturn, Inc., priority 2021, dated 2025).

target: T1, HPK1 (Homo sapiens, UniProt Q92918); experiment: HPK1 biochemical enzyme assay (microfluidic mobility shift assay); conditions: 1000 uM (1 mM) ATP; Caliper mobility shift; 1.5 nM HPK1; 30 min preincubation; read-out: HPK1 1000UMATP caliper IC50
T1 construct: purchased Invitrogen
Outline: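 Microfluidic mobility-shift readout with 1.5 nM HPK1 in pH 7.4 buffer; compounds (ten-point curves, top 3 μM final) preincubated 30 min with enzyme/substrate. Reaction started with 1 mM ATP and 1 μM substrate plus 5 mM MgCl2, run 60 min at RT. IC50 values binned into activity classes.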

T1 sequence (Q92918 whole entry): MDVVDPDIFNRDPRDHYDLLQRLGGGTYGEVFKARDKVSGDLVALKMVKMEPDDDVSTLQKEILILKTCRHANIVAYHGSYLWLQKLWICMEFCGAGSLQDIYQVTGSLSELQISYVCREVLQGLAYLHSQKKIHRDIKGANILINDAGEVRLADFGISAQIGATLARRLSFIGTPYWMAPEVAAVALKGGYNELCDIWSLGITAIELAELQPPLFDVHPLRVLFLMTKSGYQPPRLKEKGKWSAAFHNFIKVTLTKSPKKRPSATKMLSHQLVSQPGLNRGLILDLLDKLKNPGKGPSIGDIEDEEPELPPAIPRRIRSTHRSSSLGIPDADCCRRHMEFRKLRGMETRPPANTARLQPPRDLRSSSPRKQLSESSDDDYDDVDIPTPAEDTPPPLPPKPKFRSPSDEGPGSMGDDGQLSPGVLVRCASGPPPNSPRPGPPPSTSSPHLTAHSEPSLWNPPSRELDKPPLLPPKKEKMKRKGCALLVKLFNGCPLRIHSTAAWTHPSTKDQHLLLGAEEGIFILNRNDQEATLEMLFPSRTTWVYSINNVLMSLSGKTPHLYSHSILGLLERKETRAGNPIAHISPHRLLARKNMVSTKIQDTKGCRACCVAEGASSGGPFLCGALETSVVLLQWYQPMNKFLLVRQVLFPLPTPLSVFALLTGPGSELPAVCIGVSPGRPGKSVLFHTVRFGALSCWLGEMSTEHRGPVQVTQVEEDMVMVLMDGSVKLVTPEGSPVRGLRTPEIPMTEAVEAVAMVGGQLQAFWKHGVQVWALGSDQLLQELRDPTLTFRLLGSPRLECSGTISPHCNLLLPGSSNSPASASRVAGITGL

IC50	Structure (SMILES)
100 to 1000 nM	CC(O)c1c[nH]c(=O)c2c(Nc3ccc(N4CCC(O)CC4)cn3)cc(-c3c(F)cccc3F)nc12 (centres unmarked) [I-15, 2-(2,6-difluorophenyl)-8-(1-hydroxyethyl)-4-[[5-(4-hydroxy-1-piperidyl)-2-pyridyl]amino]-6H-1,6-naphthyridin-5-one]
≤ 100 nM	N#CCc1ccc(F)c(-c2cc(Nc3ccc(N4CCC(O)CC4)cn3)c3c(=O)[nH]ccc3n2)c1 [I-98, 2-[4-fluoro-3-[4-[[5-(4-hydroxy-1-piperidyl)-2-pyridyl]amino]-5-oxo-6H-1,6-naphthyridin-2-yl]phenyl] acetonitrile]
≤ 100 nM	COc1cc(-c2cc(Nc3ccc(C4CCNCC4)cn3)c3c(=O)[nH]ccc3n2)c(F)cc1C(=O)N1CCCCC1 [I-245, 2-[2-fluoro-5-methoxy-4-(piperidine-1-carbonyl)phenyl]-4-[[5-(4-piperidyl)-2-pyridyl]amino]-6H-1,6-naphthyridin-5-one]
≤ 100 nM	CCOC(=O)C(C)(C)c1ccc(Nc2cc(-c3c(F)cccc3F)nc3cc[nH]c(=O)c23)nc1 [I-53, ethyl 2-[6-[[2-(2,6-difluoro-phenyl)-5-oxo-6H-1,6-naphthyridin-4-yl]amino]-3-pyridyl]-2-methyl-propanoate]
≤ 100 nM	COc1cc(-c2cc(Nc3ccc(N4CCOCC4)cn3)c3c(=O)[nH]ccc3n2)c(F)cc1C(=O)N1CCCCC1 [I-164, 2-[2-fluoro-5-methoxy-4-(piperidine-1-carbonyl)phenyl]-4-[(5-morpholino-2-pyridyl)amino]-6H-1,6-naphthyridin-5-one]
100 to 1000 nM	O=c1[nH]ccc2nc(-c3cc4cc[nH]c4cc3F)cc(Nc3ccc(N4CCC(O)CC4)cn3)c12 [I-107, 2-(6-fluoro-1H-indol-5-yl)-4-[[5-(4-hydroxy-1-piperidyl)-2-pyridyl]amino]-6H-1,6-naphthyridin-5-one]
100 to 1000 nM	COc1cc(-c2cc(Nc3ccc(N4CCNCC4)cn3)c3c(=O)[nH]ccc3n2)c(F)cc1NC(=O)C1CCCCC1 [I-208, N-[5-fluoro-2-methoxy-4-[5-oxo-4-[(5-piperazin-1-yl-2-pyridyl)amino]-6H-1,6-naphthyridin-2-yl]phenyl] cyclohexane carboxamide]
100 to 1000 nM	O=c1[nH]ccc2nc(C3CCNCC3)cc(Nc3ccc(N4CCC(O)CC4)cn3)c12 [I-34, 4-[[5-(4-hydroxy-1-piperidyl)-2-pyridyl]amino]-2-(4-piperidyl)-6H-1,6-naphthyridin-5-one]
≤ 100 nM	CC(O)(c1ccc(F)c(-c2cc(Nc3ccc(N4CCC(O)CC4)cn3)c3c(=O)[nH]ccc3n2)c1)C(F)(F)F (single isomer, unassigned) [I-274, 2-(2-fluoro-5-(1,1,1-hydroxy-propan-2-yl)phenyl)-4-((5-(4-hydroxy-piperidin-1-y)pyridin-2-yl)amino)-1,6-naphthyridin-5(6H)-one]
≤ 100 nM	COC(=O)c1ccc(-c2cc(Nc3ccc(N4CCC(O)CC4)cn3)c3c(=O)[nH]ccc3n2)c(F)c1 [I-125, Methyl 3-fluoro-4-[4-[[5-(4-hydroxy-1-piperidyl)-2-pyridyl]amino]-5-oxo-6H-1,6-naphthyridin-2-yl]benzoate]
≤ 100 nM	Cc1ccncc1-c1cc(Nc2ccc(N3CCC(O)CC3)cn2)c2c(=O)[nH]ccc2n1 [I-281, 4-[[5-(4-hydroxy-1-piperidyl)-2-pyridyl]amino]-2-(4-methyl-3-pyridyl)-6H-1,6-naphthyridin-5-one]
> 1000 nM	O=c1[nH]ccc2nc(-c3cnc4ccccn34)cc(Nc3ccc(N4CCC(O)CC4)cn3)c12 [I-284, 4-[[5-(4-hydroxy-1-piperidy)-2-pyridyl]amino]-2-imidazo[1,2-a]pyridin-3-yl-6H-1,6-naphthyridin-5-one]
> 1000 nM	CN(C(=O)c1ccc(-c2cc(Nc3ccc(N4CCC(O)CC4)cn3)c3c(=O)[nH]ccc3n2)c(F)c1)C1CCCCC1 [I-143, N-cyclohexyl-3-fluoro-4-[4-[[5-(4-hydroxy-1-piperidyl)-2-pyridyl]amino]-5-oxo-6H-1,6-naphthyridin-2-yl]-N-methyl-benzamide]
≤ 100 nM	O=C(Nc1ccc(-c2cc(Nc3ccc(N4CCC(O)CC4)cn3)c3c(=O)[nH]ccc3n2)c(F)c1)C1CC1 [I-58, N-[3-fluoro-4-[4-[[5-(4-hydroxy-1-piperidyl)-2-pyridyl]amino]-5-oxo-6H-1,6-naphthyridin-2-yl]phenyl] cyclopropane-carboxamide]
100 to 1000 nM	O=C(Nc1ccc(-c2cc(Nc3ccc(N4CCC(O)CC4)cn3)c3c(=O)[nH]ccc3n2)c(F)c1)C1CC2CCC1C2 (centres unmarked) [I-179, N-[3-fluoro-4-[4-[[5-(4-hydroxy-1-piperidyl)-2-pyridyl]amino]-5-oxo-6H-1,6-naphthyridin-2-yl]phenyl] norbornane-2-carboxamide]
100 to 1000 nM	COc1cc(-c2cc(Nc3ccc(C4CC4)cn3)c3c(=O)[nH]ccc3n2)c(F)cc1C(=O)N1CCCCC1 [I-198, 4-[(5-cyclopropyl-2-pyridyl)amino]-2-[2-fluoro-5-methoxy-4-(piperidine-1-carbonyl)phenyl]-6H-1,6-naphthyridin-5-one]
100 to 1000 nM	CC(C)(O)c1ccc(-c2cc(Nc3ccc(N4CCC(O)CC4)cn3)c3c(=O)[nH]ccc3n2)c(F)c1 [I-69, 2-[2-fluoro-4-(1-hydroxy-1-methyl-ethyl)phenyl]-4-[[5-(4-hydroxy-1-piperidyl)-2-pyridyl]amino]-6H-1,6-naphthyridin-5-one]
100 to 1000 nM	CCNC(=O)c1ccc(Nc2nc(-c3c(F)cccc3F)cc3cc[nH]c(=O)c23)cc1 [I-7, 4-[[3-(2,6-difluorophenyl)-8-oxo-7H-2,7-naphthyridin-1-yl]amino]-N-ethyl-benzamide]
100 to 1000 nM	CN(C)C(=O)c1ccc(-c2cc(Nc3ccc(N4CCC(O)CC4)cn3)c3c(=O)[nH]ccc3n2)c(F)c1 [I-62, 3-fluoro-4-[4-[[5-(4-hydroxy-1-piperidyl)-2-pyridyl]amino]-5-oxo-6H-1,6-naphthyridin-2-yl]-N,N-dimethyl-benzamdie]
≤ 100 nM	COc1cc(-c2cc(Nc3ccc(N4CCC(O)CC4)cn3)c3c(=O)[nH]ccc3n2)c(F)cc1C(=O)N(C)C [I-230, 5-fluoro-4-[4-[[5-(4-hydroxy-1-piperidyl)-2-pyridyl]amino]-5-oxo-6H-1,6-naphthyridin-2-yl]-2-methoxy-N,N-dimethyl-benzamide]
> 1000 nM	CN1CCc2c(ccc(F)c2-c2cc(Nc3ccc(N4CCC(O)CC4)cn3)c3c(=O)[nH]ccc3n2)C1 [I-268, 2-(6-fluoro-2-methyl-3,4-dihydro-1H-isoquinolin-5-yl)-4-[[5-(4-hydroxy-1-piperidyl)-2-pyridyl]amino]-6H-1,6-naphthyridin-5-one]
≤ 100 nM	O=C(O)c1ccc(-c2cc(Nc3ccc(N4CCC(O)CC4)cn3)c3c(=O)[nH]ccc3n2)c(F)c1 [I-134, 3-Fluoro-4-[4-[[5-(4-hydroxy-1-piperidyl)-2-pyridyl]amino]-5-oxo-6H-1,6-naphthyridin-2-yl]benzoic Acid]
100 to 1000 nM	CCCc1cc(Nc2ccc(N3CCC(O)CC3)cn2)c2c(=O)[nH]cnc2n1 [I-60, 5-[[5-(4-hydroxy-1-piperidyl)-2-pyridyl]amino]-7-propyl-3H-pyrido[2,3-d]pyrimidin-4-one]
≤ 100 nM	O=c1[nH]ccc2nc(-c3cc(CN4CC5(COC5)C4)ccc3F)cc(Nc3ccc(N4CCC(O)CC4)cn3)c12 [I-250]
100 to 1000 nM	CCOc1ccc(F)c(-c2cc(Nc3ccc(N4CCC(O)CC4)cn3)c3c(=O)[nH]ccc3n2)c1 [I-66, 2-(5-ethoxy-2-fluoro-phenyl)-4-[[5-(4-hydroxy-1-piperidyl)-2-pyridyl]amino]-6H-1,6-naphthyridin-5-one]
≤ 100 nM	O=c1[nH]ccc2nc(-c3cc(OC(F)(F)F)ccc3F)cc(Nc3ccc(N4CCC(O)CC4)cn3)c12 [I-106, 2-[2-fluoro-5-(trifluoro-methoxy)phenyl]-4-[[5-(4-hydroxy-1-piperidyl)-2-pyridyl]amino]-6H-1,6-naphthyridin-5-one]
≤ 100 nM	O=C(Nc1ccc(-c2cc(Nc3ccc(N4CCC(O)CC4)cn3)c3c(=O)[nH]ccc3n2)c(F)c1)C1(C(F)F)CC1 [I-222]
> 1000 nM	Cc1c[nH]c(=O)c2c(Nc3ccc(N4CCC(O)CC4)cn3)cc(C(C)C)nc12 [I-89, 4-[[5-(4-hydroxy-1-piperidyl)-2-pyridyl]amino]-2-isopropyl-8-methyl-6H-1,6-naphthyridin-5-one]
≤ 100 nM	COc1cc(-c2cc(Nc3cccc(N4CCNCC4)n3)c3c(=O)[nH]ccc3n2)c(F)cc1C(=O)N1CCCCC1 [I-234, 2-[2-fluoro-5-methoxy-4-(piperidine-1-carbonyl)phenyl]-4-[(6-piperazin-1-yl-2-pyridyl)amino]-6H-1,6-naphthyridin-5-one]
